Details: Liquid, Pycnometric method

c1ccc2c(c1)ccc1ccccc12 [phenanthrene]
molar volume [m3/mol]
Details | 377.69 K | 385.54 K | 393.38 K | 401.26 K | 409.13 K | 417.06 K | 424.84 K
2049 kPa | 0.0001679 | 0.0001688 | 0.0001698 | 0.0001708 | 0.0001717 | 0.0001728 | 0.0001738
4049 kPa | 0.0001677 | 0.0001686 | 0.0001696 | 0.0001705 | 0.0001715 | 0.0001726 | 0.0001735
6049 kPa | 0.0001674 | 0.0001683 | 0.0001692 | 0.0001702 | 0.0001712 | 0.0001723 | 0.0001732
8049 kPa | 0.0001672 | 0.0001681 | 0.000169 | 0.00017 | 0.000171 | 0.0001719 | 0.0001729
10049 kPa | 0.000167 | 0.0001679 | 0.0001689 | 0.0001698 | 0.0001709 | 0.0001718 | 0.0001727
